{
  "source": "patent US20210077492A1",
  "about": "“METHODS AND COMPOSITIONS OF TREATING PANCREATIC CANCER” (The Trustees of Indiana University, priority 2019, published 2021)",
  "key": {"[1]": {"tested_on": "pancreatic cancer cell line ASPC1", "experiment": "LINE1 global 5-methyl-cytosine DNA methylation assay in treated or transfected cells", "type": "cell-based, human", "conditions": "concentration not given", "description": "DNA Methylation of normal pancreas and PDAC tumor samples was analyzed using data available through the MethHC database (http://methhc.mbc.nctu.edu.tw/php/index.php) using the PAAD dataset. Methylation analysis was performed at transcriptional start sites (TSS), promoters, and CpG island. For global DNA methylation changes, cells were transfected with shRNA against human UHRF1 (Dharmacon Horizon, catalog V3SH7590-225743149) for 96 hours or treated with THU (1 μM) DT1 (0.5-15 μM) or 5-aza-cytidine (1 μM). DNA was isolated using the Clonetech NucleoSpin DNA rapid lyse kit (catalog 740110.1) following manufacture's recommended conditions. 100 ng of isolated DNA was used to quantify DNA methylation using the 5mC-Long Interspersed Nucleotide Element 1 (LINE-1) kit from Active Motif (catalog number 55017) following the manufacture's recommendations. A Colorimetric ELISA readout was measured on a BioTek synhergy HI reader at 450 nm.\nReferring now to FIG. 17, pancreatic cancer cell line ASPC1 was transfected with shRNA against UHRF1. DNA (100 ng) was isolated from shUFRF1 and scramble transfected cells at 96 hours post transfection and was used for quantification of global 5-methyl-cytosine methylation using LINE1 global DNA methylation kit (ACTIVE MOTIF).\nReferring now to FIG. 23, primary PDAC cells were incubated with 2 μM of DT1 and 1 uM of THU for 96 hrs. […]"}, "[2]": {"tested_on": "PDAC cell lines ASPC1, MiaPaCa-2, BXPC3", "experiment": "Cell proliferation of PDAC cell lines by automated IncuCyte incubator", "type": "cell-based, human", "description": "A panel of pancreatic cancer cell lines (PCCs) was ordered from ATCC (https://www.atcc.org). Cells were cultured in RPMI media supplemented with 10% FBS and 1% penicillin streptomycin (100 units/ml of penicillin and […] of streptomycin) in a 37° C. incubator with 5% Carbon dioxide (CO2). All cell lines were confirmed to be mycoplasma-free using a Mycoalert detection kit (Lonza Allendale N.J., catalog #LT07-218) as per manufacturer's protocol. For DT1, DAC, and THU treatments, 1000 cells were plated in a 96 well plate overnight. Cells were treated three times at 24, 48, and 72 hours post-plating using concentrations of 0.2-2 μM of DT1 and DAC and 1-2 μM of THU independently or in combination. DMSO was used as a vehicle control. Cell proliferation was measured in a 37° C., Incucyte incubator (IncuCyte™ live-cell, Essen biosciences, Michigan USA) with 5% CO2 for automated live cell proliferation in real time, and images were taken every 6 hours for up to 160 hours. Cells were also counted on a Beckman coulter automated cell counter. Referring now to FIG. 27, primary PDAC cell line ASPC1 was incubated with 2 μM DT1 to inhibit UHRF1 and/or DNMT1 inhibitor DAC or CDA inhibitor THU (1 μM) or […], 0.2 μM DAC and THU (1 μM). Cell proliferation was quantified by automated IncuCyte incubator for 160 hours. […] Referring now to FIG. 28, primary PDAC cell line MiaPaCa-2 was incubated with 2 μM DT1 to inhibit UHRF1 and/or DNMT1 inhibitor DAC or CDA inhibitor THU (1 μM) or […], 0.2 μM DAC, and THU (1 μM). Cell proliferation was quantified by automated IncuCyte incubator for 160 hours. […] Referring now to FIG. 29, primary PDAC cell line BXPC3 was incubated with 2 μM DT1 to inhibit UHRF1 and/or DNMT1 inhibitor DAC or CDA inhibitor THU (1 μM) or […], 0.2 μM DAC, and THU (1 μM). Cell proliferation was quantified by automated IncuCyte incubator for 160 hours. […] Decitabine (DAC) is a clinically available drug that degrades DNMT1 to decrease DNA methylation while DT1 targets UHRF1."}, "[3]": {"tested_on": "primary PDAC cell line ASPC1", "experiment": "Morphological analysis by giemsa staining for induction of differentiation", "type": "cell-based, human", "conditions": "DT1 at 0.5-2 μM", "description": "(§1) Referring now to FIG. 23, primary PDAC cells were incubated with 2 μM of DT1 and 1 uM of THU for 96 hrs. RNA was isolated and gene expression pancreas differentiation factors were analyzed in ASPC1 and BXPC3 cells. Referring now to FIG. 24, primary PDAC cell line ASPC1 was treated with 1 μM of THU, 2 μM of DT1, and 1 μM of DAC, or the combination of 0.5 μM of DT1 plus 0.2 μM of DAC, or 1 μM of THU and 0.5 μM of DT1 plus 0.2 μM of DAC. Morphological analysis was performed using a giemsa staining method to determine induction of differentiation (enlargement of cytoplasm and reduction of nuclear compartments). Black bar=200× magnification. Referring now to FIG. 25, primary PDAC cell line ASPC1 was treated with 100 nM of ATRA and 1 μM of DAC, or combination of 100 nM of ATRA plus 200 nM of DAC. Morphological analysis was performed using a giemsa staining method to determine induction of differentiation (enlargement of cytoplasm and reduction of nuclear compartments). Black bar=200× magnification. Referring now to FIG. 26, pancreatic cancer cell line ASPC1 was treated with DMSO as control, 1 μM of THU, and varying DT1 concentrations. DNA (100 ng) was isolated at 96 hours post transfection and was used to quantify global 5-methyla-cytosine (5-mC) methylation using LINE1 global DNA methylation kit (ACTIVE MOTIF). […]"}, "[4]": {"tested_on": "ASPC1 and BXPC3 cells", "experiment": "Gene expression of pancreas differentiation factors by qPCR", "type": "cell-based, human", "conditions": "DT1 at 0.5-2 μM", "description": "Gene expression analysis by real time quantitative polymerase chain reaction (qRT-PCR) was performed using standard methods. Gene expression of target genes was performed using either SYBR green methods or Power Green ROX dye master mix (Applied Biosystems, Foster city CA, USA Lot number 1610538). Assays were performed with an Applied Biosytems ViiA7 (Life Technologies).\nas §1, with “Morphological analysis was performed using a giemsa staining method to determine induction of differentiation (enlargement of cytoplasm and reduction of nuclear compartments). Black bar=200× magnification. Referring now to FIG. 26, pancreatic cancer cell line ASPC1 was treated with DMSO as control, 1 μM of THU, and varying DT1 concentrations.” left out"}, "[5]": {"tested_on": "orthotopic xenografts of PDAC with AsPC-1 cells", "experiment": "Orthotopic PDAC xenograft model, tumor growth kinetics", "type": "in vivo", "conditions": "THU 10 mg/kg three times weekly, 35 days", "description": "Orthotopic mouse models with human PDAC cells were generated using NOD/SCID mice. In vivo BLI was conducted on a NiteOwl system and acquisition software. Data were analyzed using eLumenate analysis software. For the primary tumor, signal intensity was quantified as the sum of all detected photon counts within a region of interest selected by an automated maximum entropy method and normalized to the area of that region of interest. For the metastatic region, a region of interest was drawn manually in a “crescent” shape which encompassed all of the abdominal region except the primary tumor and maintained a boundary at least 2 mm away from the ROI for the primary. The signal in the metastatic region was again quantified by dividing the sum of all detected photon counts in the region by the area of the region.\nReferring to FIG. 30, bioluminescent and primary PDAC cell lines ASPC1 and MiPaCa-2 were used to generate PDAC xenografts for therapeutic validation. At 22 days post injection of tumor cells, tumor growth and metastatic dissemination are detected in this orthotopic models in NOD/SCID mice. Referring to FIG. 31, orthotopic xenografts of PDAC with AsPC-1 cells were treated with vehicle control, Tetrahydrouridine (THU, 10 mg/kg), Decitabine (DAC, 0.2 mg/kg), or combination of THU (10 mg/kg) with DAC (0.1 mg/kg) three times weekly. […]"}},
  "data": [
    {"smiles": "C/C(=N\\O)c1c[nH]c(=O)[nH]c1=O", "note": "[DT1]", "values": [
      {"measurement": "global DNA methylation", "setting": "[1]", "value": "decreased global DNA methylation"},
      {"measurement": "concentration range at which DT1 activity was observed", "setting": "[2]", "value": "micromolar range"},
      {"measurement": "PDAC proliferation", "setting": "[2]; DT1 at 0.5-2 μM", "value": "decreased PDAC proliferation"},
      {"measurement": "differentiation-based morphological changes", "setting": "[3]", "value": "induced differentiation-based morphological changes"},
      {"measurement": "expression of pancreas differentiation factors", "setting": "[4]", "value": "upregulated pancreas differentiation factors"}
    ]},
    {"smiles": "O=C1NC(O)CCN1[C@@H]1O[C@H](CO)[C@@H](O)[C@H]1O", "note": "(stereo partly shown) [THU, tetrahydrouridine, reference compound]", "values": [
      {"measurement": "PDAC proliferation", "setting": "[2]; alone or in combination, methods: 0.2-2 μM of DT1 and DAC, 1-2 μM of THU", "value": "did not inhibit PDAC proliferation alone"},
      {"measurement": "tumor growth kinetics", "setting": "[5]", "value": "did not affect tumor growth kinetics"}
    ]}
  ]
}
